Results as given in article PMC8506967, “Binding specificity and function of the SWI/SNF subunit SMARCA4 bromodomain interaction with acetylated histone H3K14” (The Journal of Biological Chemistry, 2021).
Ends that are not written are not given here.

Key:
[1] = biological target: T1, BAZ2B BD (Homo sapiens, UniProt Q9UIF8); test: ITC, BAZ2B bromodomain; type: binding; details: BAZ2B wt, GST +, 293 or 298 K, 10 mM HEPES, 100 mM NaCl, 2.5% glycerol, pH 7.3
T1 sequence (Q9UIF8 2060-2164 limits assumed): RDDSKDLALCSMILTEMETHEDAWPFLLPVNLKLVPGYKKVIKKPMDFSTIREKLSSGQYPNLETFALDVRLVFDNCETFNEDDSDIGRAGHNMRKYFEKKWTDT

[2] = system: four family VIII BD; details: cited from earlier work
From the text: How SMARCA4 targets, is recruited to, and interacts with chromatin substrates to induce ATP-dependent nucleosome remodeling has been a long-standing question. Recent structures of the SMARCA4 catalytic-core domain in complex with a nucleosome core particle, as well as a nucleosome-bound SWI/SNF complex comprising SMARCA4 and nine auxiliary subunits, provided insights into the mechanism of SWI/SNF remodeling ([25], [26]). But the structural basis underlying SMARCA4 recognition of its histone tail target has remained elusive despite the existence of SMARCA4 structures in the apo state ([1], [27] ...

[3] = system: Saccharomyces cerevisiae Sth1 (ScSth1) BD; details: cited from earlier work
From the text: How SMARCA4 targets, is recruited to, and interacts with chromatin substrates to induce ATP-dependent nucleosome remodeling has been a long-standing question. Recent structures of the SMARCA4 catalytic-core domain in complex with a nucleosome core particle, as well as a nucleosome-bound SWI/SNF complex comprising SMARCA4 and nine auxiliary subunits, provided insights into the mechanism of SWI/SNF remodeling ([25], [26]). […] Water-mediated hydrogen bonds stabilize the interaction between H3R17 and Tyr1270 on the αC-helix. || We next asked if the SMARCA4-specific residues are also conserved in other family VIII BDs that bind H3K14ac. […] PBRM-1 is an SWI/SNF accessory protein in the PBAF complex that contains six tandem N-terminal BDs ([42]). The second and fourth PBRM-1 BDs (BD(2) and BD(4)) bind H3K14ac ([43], [44]). Due to the low sequence homology outside of the central α A and αB helices ([1]), we aligned the family VIII BDs based on the superposition of their structures and added CeSMARCA4 to the alignm ...

[4] = system: SMARCA4; details: C-terminal BD motif; cited from earlier work
From the text: SMARCA4/BRG1 is an essential catalytic core subunit of the roughly two-megadalton Switch/Sucrose Nonfermenting (SWI/SNF) multiprotein complex, which uses the energy of ATP hydrolysis to remodel chromatin by perturbing interactions between histone core particles and DNA ([14], [15]). SMARCA4 can remodel nucleosomal substrates by itself in vitro ([16], [17]) and is functionally and structurally conserved among eukaryotes ([14], [18]).

[5] = system: SMARCA2; details: cited from earlier work
From the text: (§1) We next asked if the SMARCA4-specific residues are also conserved in other family VIII BDs that bind H3K14ac. […] PBRM-1 is an SWI/SNF accessory protein in the PBAF complex that contains six tandem N-terminal BDs ([42]). The second and fourth PBRM-1 BDs (BD(2) and BD(4)) bind H3K14ac ([43], [44]). Due to the low sequence homology outside of the central α A and αB helices ([1]), we aligned the family VIII BDs based on the superposition of their structures and added CeSMARCA4 to the alignm ...

[6] = system: PBRM-1 BD(2) and BD(4); details: cited from earlier work
From the text: as §1

[7] = system: PBRM-1; details: cited from earlier work
From the text: as §1

[8] = system: ASH1L-BD; details: cited from earlier work
[9] = system: HsPBRM-1 BD(5); details: PBRM-1 BD(5); cited from earlier work
From the text: We superimposed each family VIII BD structure onto the CeSMARCA4-BD structure and plotted the deviation for each residue (Fig. 5D and Fig. S2). […] The overall roo ...

[10] = biological target: T2, CeSMARCA4 BD crystallisation construct (residues Lys1176–Glu1296, Phe1287Ser) (C. elegans, UniProt G5EF53 1176-1296, Phe1287Ser); test: crystal structure; BD incubated with 2:1 M excess H3_(7–20)K14ac peptide at 4 °C, sitting-drop vapor diffusion, 35% PEG smear; 1.29 Å, space group P4_(1)2_(1)2; details: both partners purified
T2 construct: SWSN-4 (CeSMARCA4), C. elegans, bromodomain, residues Lys1176-Glu1296 with the point mutation Phe1287Ser; pGEX-6P-1 vector with an HRV 3C protease site; also called untagged CeSMARCA4 BD; source: E. coli BL21 (DE3), purified (Glutathione Sepharose, PreScission cleavage, Q Sepharose, Sephacryl S-200); not shown: GST, N-terminal, cleaved
T2 sequence (looked up): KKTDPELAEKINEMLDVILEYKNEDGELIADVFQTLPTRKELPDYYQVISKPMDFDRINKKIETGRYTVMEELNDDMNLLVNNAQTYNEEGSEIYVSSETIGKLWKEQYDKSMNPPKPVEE

[11] = biological target: T3, CeSMARCA4 GST–BD fusion (C. elegans SMARCA4/SWSN-4 bromodomain, residues D1179–N1289, GST-tagged) (C. elegans, UniProt G5EF53 1179-1289); test: ITC; MicroCal Auto-iTC200, 293 or 298 K, 10 mM HEPES, 100 mM NaCl, 2.5% glycerol, pH 7.3; protein 50–100 μM in the cell, peptide 500–1000 μM in the syringe; single-site binding model; details: both partners purified
T3 construct: SWSN-4 (CeSMARCA4, ortholog of human SMARCA4/BRG1), C. elegans, bromodomain, residues D1179-N1289; Cloned from Bristol N2 cDNA into a pGEX vector; also called GST-CeSMARCA4; CeSMARCA4 BD; source: E. coli BL21 (DE3), purified (Glutathione Sepharose 4B, eluted with reduced glutathione, dialysed); not shown: GST, N-terminal, kept
T3 sequence (looked up): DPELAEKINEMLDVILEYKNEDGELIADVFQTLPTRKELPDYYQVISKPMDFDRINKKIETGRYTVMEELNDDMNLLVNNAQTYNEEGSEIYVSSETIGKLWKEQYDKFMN

[12] = biological target: T4, CeSMARCA4 BD with the GST tag cleaved off (ITC) (C. elegans, UniProt G5EF53 1179-1289); test: as above; details: both partners purified
T4 construct: SWSN-4 (CeSMARCA4), C. elegans, bromodomain; the Asp1179-Asn1289 construct is the one named for ITC; A protease site and cleavage are described only for the crystallisation construct (K1176-E1296, F1287S); also called CeSMARCA4 bromodomain, GST tag removed; source: E. coli BL21 (DE3), purified, GST tag cleaved off; not shown: GST, N-terminal, cleaved
T4 sequence (looked up): T3 sequence (looked up)

[13] = biological target: T5, human BAZ2B bromodomain (human); test: ITC
T5 chain: T1 sequence (Q9UIF8 2060-2164 limits assumed)

With `CC(=O)NCCCC[C@H](NC(=O)CNC(=O)CNC(=O)[C@@H](NC(=O)[C@H](CO)NC(=O)[C@H](CCCCN)NC(=O)[C@H](CCCNC(=N)N)NC(=O)[C@H](C)N)[C@@H](C)O)C(=O)N[C@@H](C)C(=O)N1CCC[C@H]1C(=O)N[C@@H](CCCNC(=N)N)C(=O)N[C@@H](CCCCN)C(=O)N[C@@H](CCC(N)=O)C(=O)N[C@@H](CC(C)C)C(=O)O` [H3_7–20K14ac] as the molecule, how does the Kd [1] read?
Its Kd is 12.1 ± 0.2 µM.

With `O=C(/C=C/N1C[C@H]2C[C@@H]1CN2c1ccccn1)c1ccccc1O` [PFI-3] as the molecule, how does the “selectivity of chemical probe” value [2] read?
The value was “selective for four family VIII BD”.

Which results are given for “H3K14ac: lysine 14 acetylation on histone H3 (ARKSTGGKAPRKQL; not fully specified (residue 8); also: K14 acetylation, chain position not given here)”?
binding of mutated H3 peptide / acetylated mark to ScSth1 BD [3]: binds more promiscuously; selective H3K14ac binding [3]: reported to selectivity bind; H3K14ac recognition [4]: capable of recognizing; selective H3K14ac binding [5]: reported to selectivity bind; H3K14ac binding [6]: bind; selective H3K14ac binding [7]: reported to selectivity bind; H3K14ac binding [8]: unable to bind; H3K14ac binding [9]: cannot bind

B1: histone H3_(7–20)K14ac peptide (peptide, UniProt P68431 8-21, looked up)
peptide: ARKSTGGK(Ac)APRKQL
notes: histone H3 N-terminal tail, residues 7-20; also called H3K14ac peptide
Does B1 bind [10]?
Result: binds

What about the Kd [11] of the same molecule?
Its Kd is 11.6 ± 0.1 µM.

And the Kd [12]?
Its Kd is 23.4 ± 0.8 µM.

And the Kd [13]?
The Kd was 12.1 µM.
